From patent US9061030B2, “sGC stimulators” (IRONWOOD PHARMACEUTICALS, INC., priority 2010, dated 2015)

Test system: Thoracic aortic rings
Test: Thoracic aortic rings assay
Parameters: species or system rat
Settings: for inhibition at 1 µM: 1 μM compound, read-out: Percent Relaxation at 1 μM; for inhibition at 1 µM / inhibition at 3 µM / inhibition at 10 µM: rat thoracic aortic rings contracted with 100 ng/mL phenylephrine; for inhibition at 3 µM: 3 μM compound, read-out: Percent Relaxation at 3 μM; for inhibition at 10 µM: 10 μM compound, read-out: Percent Relaxation at 10 μM; for EC50: relaxation of rat thoracic aortic rings contracted with 100 ng/mL phenylephrine, read-out: Aortic Ring EC50
Method: Thoracic aortic rings were dissected from anesthetized (isoflurane) male Sprague-Dawley rats weighing 275-299 g. Tissues were immediately transferred to ice-cold Krebs-Henseleit solution, which had been aerated with 95% O2 and 5% CO2 for 30 minutes. Following removal of connective tissue, aortic sections were cut into 4 rings (˜2 mm each) and suspended on 2 L-shaped hooks, with one hook fixed at the bottom of the tissue bath (Schuler Organ Bath, Harvard Apparatus) and the other connected to a force transducer (F30 Force Transducer, Harvard Apparatus). Baths contained Krebs Henseleit solution (10 mL) heated to 37° C. and aerated with 95% O2 and 5% CO2. Rings were brought to an initial tension of 0.3-0.5 g and gradually raised to a resting tension of 1.0 g over 60 minutes. Rings were rinsed with Krebs Henseleit solution (heated to 37° C. and aerated with 95% 02 and 5% CO2) at 15 minute intervals until a stable baseline was obtained. Rings were considered to be stable after a resting tension of 1.0 g was maintained (for approximately 10 minutes) without need for adjustment. Rings were then contracted with 100 ng/mL phenylephrine by adding 100 μL of a 10 μg/mL phenylephrine stock solution. Tissues achieving a stable contraction were then treated in a cumulative, dose dependent manner with test compounds prepared in dimethylsulfoxide (DMSO). In some cases, tissues were rinsed three times over a 5 minute period with Krebs-Heinseleit's solution (heated to 37° C. and aerated with 95% 02 and 5% CO2), allowed to stabilize at baseline, and then used for characterization of other test articles or DMSO effects. All data were collected using the HSE-ACAD software provided by Harvard Apparatus. Percent relaxation effects were calculated in Microsoft Excel using the recorded tension value of 100 ng/mL phenylephrine treatment as 0% inhibition and, after washing the tissue with buffer, the original resting tension of tissue is used as 100% inhibition. EC50 values were calculated from concentration-response curves generated with GraphPad Prism Software.
The biological data for some of the compounds of Formula IA and Formula IB, in comparison with the prior art compound, BAY 41-2272, as the reference compound, determined by the thoracic aorta ring assay are presented in Table 6 below.

SMILES	EC50 [µM]	inhibition at 1 µM [%]	inhibition at 3 µM [%]	inhibition at 10 µM [%]
Fc1ccccc1Cn1nc(-c2ncccn2)nc1-c1cscn1 [Compound I-3]	1 to 2	40 to 60	80 to 100	100 to 120
Fc1ccccc1Cn1nc(-c2ccccn2)nc1-c1ncco1 [Compound I-6]	1 to 2	20 to 40	60 to 80	100 to 120
Fc1ccccc1Cn1nc(-c2ccccn2)nc1-c1nccs1 [Compound I-25]	< 1	40 to 60	80 to 100	100 to 120
Fc1ccc(-c2nc(-c3nccs3)n(Cc3ccccc3F)n2)nc1 [Compound I-38]	1 to 2	40 to 60	80 to 100	100 to 120
Fc1ccccc1Cn1nc(-c2nccs2)nc1-c1cscn1 [Compound I-41]	< 1	80 to 100	100 to 120	100 to 120
Fc1ccccc1Cn1nc(-c2ncccn2)nc1-c1cocn1 [Compound I-46]	2 to 3	20 to 40	60 to 80	80 to 100
Fc1ccccc1Cn1nc(-c2ccccn2)nc1-n1cncn1 [Compound I-50, 2′-(2-fluorobenzyl)-5′-(pyridin-2-yl)-2′H-1,3′-bi(1′,2′,4-triazole)]	–	10 to 20	20 to 40	60 to 80

Now from value to compound, other results behind:

EC50 [µM]	SMILES	inhibition at 1 µM [%]	inhibition at 3 µM [%]	inhibition at 10 µM [%]
1 to 2	Fc1ccccc1Cn1nc(-c2ccccn2)nc1-c1ccccn1 [Compound I-1]	20 to 40	60 to 80	100 to 120
< 1	Fc1ccccc1Cn1nc(-c2ccccn2)nc1-c1cscn1 [Compound I-4]	60 to 80	100 to 120	–
< 1	Fc1ccccc1Cn1nc(-c2ccccn2)nc1-c1cocn1 [Compound I-12, 4-(1-(2-fluorobenzyl)-3-(pyridin-2-yl)-1H-1,2,4-triazol-5-yl)oxazole]	40 to 60	80 to 100	100 to 120
2 to 3	Fc1ccccc1Cn1nc(-c2ncccn2)nc1-c1nccs1 [Compound I-30]	20 to 40	60 to 80	100 to 120
1 to 2	Fc1ccccc1Cn1nc(-c2cscn2)nc1-c1nccs1 [Compound I-40]	20 to 40	60 to 80	100 to 120
< 1	Nc1ccnc(-c2nc(-c3nccs3)n(Cc3ccccc3F)n2)c1 [Compound I-44]	80 to 100	100 to 120	100 to 120
1 to 2	Nc1ccnc(-c2nc(-c3nccs3)n(Cc3ccccc3F)n2)n1 [Compound I-48, 2-(1-(2-fluorobenzyl)-5-(thiazol-2-yl)-1H-1,2,4-triazol-3-yl)pyrimidin-4-amine]	40 to 60	80 to 100	100 to 120
1 to 2	Nc1ccnc(-c2nc(-c3cscn3)n(Cc3ccccc3F)n2)c1 [Compound I-53, 2-(1-(2-fluorobenzyl)-5-(thiazol-4-yl)-1H-1,2,4-triazol-3-yl)pyridin-4-amine]	20 to 40	80 to 100	100 to 120
< 1	COC(=O)N(C)c1c(N)nc(-c2nc(-c3nccs3)n(Cc3ccccc3F)n2)nc1N [Compound I-61, methyl 4,6-diamino-2-(1-(2-fluorobenzyl)-5-(thiazol-2-yl)-1H-1,2,4-triazol-3-yl)pyrimidin-5-yl(methyl)carbamate]	60 to 80	80 to 100	–
